Legend:
[1] = molecular target: T1, tr-MetEEco (Escherichia coli, UniProt P25665); assay: HPLC and MS of products; assay type: biochemical; details: 2 mM D,L-homocysteine, 150 µM 5-methyl-THF-Glu3, pH 7.2, 100 µM MgSO4, 100 µM ZnSO4, 10 mM DTT, 37 °C
T1 construct: gene metE; tandem-repeat MetE, full length, 753 residues, 85 kDa, recombinant in E. coli DH10B (pBAD30_MetE), anion exchange; source strain of the gene not in main text (K-12 likely)
T1 sequence (P25665 2-753): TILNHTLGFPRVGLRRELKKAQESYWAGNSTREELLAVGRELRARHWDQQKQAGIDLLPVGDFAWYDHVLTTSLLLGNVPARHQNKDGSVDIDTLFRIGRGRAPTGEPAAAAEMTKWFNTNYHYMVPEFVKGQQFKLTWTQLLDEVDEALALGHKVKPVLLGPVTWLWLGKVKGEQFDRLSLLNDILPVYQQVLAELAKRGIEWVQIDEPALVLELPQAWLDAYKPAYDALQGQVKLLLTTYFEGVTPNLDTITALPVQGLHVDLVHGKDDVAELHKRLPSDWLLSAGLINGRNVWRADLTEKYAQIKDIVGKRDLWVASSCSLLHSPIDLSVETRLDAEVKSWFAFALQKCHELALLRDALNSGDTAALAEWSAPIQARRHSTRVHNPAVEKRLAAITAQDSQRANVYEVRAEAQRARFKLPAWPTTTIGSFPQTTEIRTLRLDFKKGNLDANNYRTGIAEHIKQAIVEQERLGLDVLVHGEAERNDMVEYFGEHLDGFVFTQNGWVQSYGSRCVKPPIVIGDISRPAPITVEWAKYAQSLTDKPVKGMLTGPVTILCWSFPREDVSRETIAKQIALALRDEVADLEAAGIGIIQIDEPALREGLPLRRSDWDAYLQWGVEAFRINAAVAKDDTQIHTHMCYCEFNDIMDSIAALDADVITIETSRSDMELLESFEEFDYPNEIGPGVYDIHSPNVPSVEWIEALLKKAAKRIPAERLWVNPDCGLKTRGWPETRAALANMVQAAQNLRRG

[2] = molecular target: T2, core-MetECBDB (Dehalococcoides mccartyi, UniProt A0A916P3S8); details: 2 mM D,L-homocysteine, 50 mM Tris/HCl pH 6.5, 150 mM NaCl, 10% glycerol, anoxic, 0.1 µM enzyme; Hill fit
T2 construct: gene cbdbA481

[3] = substrate: NC(CCS)C(=O)O; assay: purified protein; details: 0.5 mM methylcob(III)alamin, 50 mM Tris/HCl pH 6.5, 150 mM NaCl, 10% glycerol, anoxic, 0.1 µM enzyme, racemate, enzyme taken as L-specific, Hill fit

## NC(CCS)C(=O)O (racemic) [D,L-homocysteine]
[1]
  HPLC and MS of products: in the presence of tr-MetEEco, methionine was formed

## C.C/C1=C2/N[C@H]([C@H](CC(N)=O)[C@@]2(C)CCC(=O)NC[C@@H](C)OP(=O)(O)O[C@H]2[C@@H](O)[C@@H](n3cnc4cc(C)c(C)cc43)O[C@@H]2CO)[C@]2(C)N=C(/C(C)=C3N=C(/C=C4N=C1[C@@H](CCC(N)=O)C\4(C)C)[C@@H](CCC(N)=O)[C@]\3(C)CC(N)=O)[C@@H](CCC(N)=O)[C@]2(C)CC(N)=O.[Co] [MeCbl(III), methylcob(III)alamin]
[2]
  Km: 236 ± 3 µM

B1: core-MetECBDB (Dehalococcoides mccartyi CBDB1) (protein)
chain: MTKTDFYFLPTMIGSMPHTDPKAAVDIITHYLRDIPVWPQLPRRSYLEGMSAQFSQGLPGVNINQDKMWIEPNSGFEGELESLYQAYLDNDFNKFPIGVEYAAGLYELASRSNLSPKLVKGHITGPLTYCMSIKDPSGKDILYDEVLSDAATKLLKLKASWQEHFLKKICRNTIIFVDEPAMSAYGSAYLPLSREQVTGMFEEVFSGISGLKGVHCCGNTDWSILMDTSVDIINFDTYSYADSLAIYTDALQAFIKRGGAVAWGIVPTDEKALKEETAASLKDRLEAAMSHFDSKGLPFAELARHSLITPACGLGLKSLDAAERAPELLAELSALLRRKHGTV
[3]
  Km: 98 ± 0 µM
  kcat: ~60 s⁻¹
